Marks after values point to notes of the source that are not given here.
System: septic shock induced by LPS + D-Galactosamine, in mice
Test: LPS+D-Galactosamine-induced septic shock model
Format: in vivo, SPF female BALB/c inbred mice
Method: The experiments were carried out in vivo on mice. The septic shock was induced by an i.p. administration of a mixture of LPS (0.1 μg/mouse) and D-Galactosamine (18 mg/mouse).
The treatment schedule for r-hTBP-1 based on repeated administrations (the total dose was divided into 4 administrations given at time 0 and […] and 24 hours after), was adopted. CHO r-hTBP-1 was tested, alone or in combination with DHEA, at dose levels of 62.5 and 125 μg/mouse (total dose).
DHEA was tested both in a single administration injected i.p. one hour before and contemporaneously to the septic shock-inducing agent at doses encompassed between 100 and 2.000 μg/mouse and in repeated treatment with the total dose (250 μg/mouse) divided into 4 injections given within 24 hours.
The above treatment schedules of DHEA (doses from 250 to 1,500 μl g/mouse) were followed also in combination with r-hTBP-1 which was tested at the total dose varying from 62.5 to 125 μg/mouse (divided into 4 administrations).
SPF female BALB/c inbred mice, 6–8 weeks (about 18–20 g b.w.), from Charles River were used throughout the whole study after an acclimatisation period of at least 7 days.
Unless otherwise specified, in all the experiments the mice were randomly divided into groups of 10 animals each.
Both substances were dissolved in saline. The mixture of LPS (0.1 μg/mouse) and D-Galactosamine (18 mg/mouse) was prepared by mixing equal volumes of these substances. The mixture was subsequently injected to animals by the i.p. route. This dose was selected under precious experiments as that inducing around 80% mortality calculated as the number of dead vs. total number of mice for each croup. The lethality was monitored after 24, 48, 72 and 96 hours and at day 7 post-treatment.
The drug was diluted in saline and injected by repeated administrations, i.e. i.v. immediately before the inoculum of LPS plus D-Galactosamine and s.c. 3, 6 and 24 hours later.
The effects of DHEA, alone or in combination with r-hTBP-1, were assayed after single i.p. administrations at different times in respect to LPS+D-Galactosamine injection; in particular, it was administered 1 hour before and contemporaneously to the septic shock-inducing agent.
A repeated treatment schedule was also investigated in which DHEA was administered at time 0 (septic shock induction) and 3, 6 and 24 hours later. DHEA was initially vehicled in a mixture of 2.5% alcohol and 10% rabbit serum in saline. To improve the solubility and standardise the preparation, the steroid was successively dispersed in a mixture of 2.5% alcohol and 10% phospholipid emulsion in saline.
The primary end point was the survival rate at 48 hours after induction of septic shock. The comparison of the effects of each treatment group vs. controls and among treatment groups was effected by Fisher's exact test, one-tailed. The same comparison was also performed at the other time points. The results in each treatment group were expressed as percent survival.
In all the experiments, percent survival values were calculated using the survival Tables for the follow up studies (Armitage P. Cap. XIV. Tavole di sopravvivenza in Statistica Medica, Feltrinelli, Milano). The χ^2-test was applied to each observation time by comparing the DHEA+r-hTBP-1 groups to the other groups.

C[C@]12CC[C@H](O)CC1=CC[C@@H]1[C@@H]2CC[C@]2(C)C(=O)CC[C@@H]12 [DHEA, Dehydroepiandrosterone]
protection (DHEA 1.000 μg contemporaneously with LPS+D-Gal vs same dose 1 hour before): higher protection | survival rate (DHEA 1.500 μg/mouse alone, 1 hour before): 40% | protective effects (DHEA 2.000 μg/mouse, 1 hour before LPS+D-Galactosamine, all time points): complete protection | % cumulative survival (DHEA 100 μg/mouse i.p. 1 hour before LPS + D-Gal, saline 10% rabbit serum, 24 hrs, 1st exp): 20% | % cumulative survival (DHEA 100 μg/mouse i.p. 1 hour before LPS + D-Gal, saline 10% rabbit serum, 48 hrs, 1st exp): 20% | % cumulative survival (DHEA 100 μg/mouse i.p. 1 hour before LPS + D-Gal, saline 10% rabbit serum, 72 hrs, 1st exp): 20% | % cumulative survival (DHEA 100 μg/mouse i.p. 1 hour before LPS + D-Gal, saline 10% rabbit serum, 96 hrs, 1st exp): 20% | protection (survival) (DHEA 250 μg/mouse alone at time 0, rabbit serum vehicle): 30% | survival rate (DHEA 250 μg/mouse divided into 4 inocula at 0, 3, 6 and 24 hours (group E), 48 hours): 40% | % cumulative survival (DHEA 250 μg/mouse i.p. at time 0, saline 10% rabbit serum, 24 hrs, 2nd exp.): 20% | % cumulative survival (DHEA 250 μg/mouse i.p. at time 0, saline 10% rabbit serum, 48 hrs, 2nd exp.): 20% | % cumulative survival (DHEA 250 μg/mouse i.p. at time 0, saline 10% rabbit serum, 72 hrs, 2nd exp.): 20% | % cumulative survival (DHEA 250 μg/mouse i.p. at time 0, saline 10% rabbit serum, 96 hrs, 2nd exp.): 20% | survival rate (DHEA 250 μg/mouse single injection (group D), 48 hours): 30% | % cumulative survival (DHEA 500 μg/mouse i.p. 1 hour before LPS + D-Gal, saline 10% rabbit serum, 24 hrs, 1st exp): 10% | % cumulative survival (DHEA 500 μg/mouse i.p. 1 hour before LPS + D-Gal, saline 10% rabbit serum, 48 hrs, 1st exp): 10% | % cumulative survival (DHEA 500 μg/mouse i.p. 1 hour before LPS + D-Gal, saline 10% rabbit serum, 72 hrs, 1st exp): 10% | % cumulative survival (DHEA 500 μg/mouse i.p. 1 hour before LPS + D-Gal, saline 10% rabbit serum, 96 hrs, 1st exp): 10% | % cumulative survival (DHEA 500 μg/mouse i.p. at time 0, saline 10% rabbit serum, 24 hrs, 1st exp.): 50% | % cumulative survival (DHEA 500 μg/mouse i.p. at time 0, saline 10% rabbit serum, 24 hrs, 2nd exp.): 30% | % cumulative survival (DHEA 500 μg/mouse i.p. at time 0, saline 10% rabbit serum, 48 hrs, 1st exp.): 40% | % cumulative survival (DHEA 500 μg/mouse i.p. at time 0, saline 10% rabbit serum, 48 hrs, 2nd exp.): 30% | % cumulative survival (DHEA 500 μg/mouse i.p. at time 0, saline 10% rabbit serum, 72 hrs, 1st exp.): 30% | % cumulative survival (DHEA 500 μg/mouse i.p. at time 0, saline 10% rabbit serum, 72 hrs, 2nd exp.): 30% | % cumulative survival (DHEA 500 μg/mouse i.p. at time 0, saline 10% rabbit serum, 96 hrs, 1st exp.): 30% | % cumulative survival (DHEA 500 μg/mouse i.p. at time 0, saline 10% rabbit serum, 96 hrs, 2nd exp.): 30% | % cumulative survival (DHEA 750 μg/mouse i.p. at time 0, saline 10% rabbit serum, 24 hrs, 1st exp.): 40% | % cumulative survival (DHEA 750 μg/mouse i.p. at time 0, saline 10% rabbit serum, 24 hrs, 2nd exp.): 50% | % cumulative survival (DHEA 750 μg/mouse i.p. at time 0, saline 10% rabbit serum, 48 hrs, 1st exp.): 40% | % cumulative survival (DHEA 750 μg/mouse i.p. at time 0, saline 10% rabbit serum, 48 hrs, 2nd exp.): 50% | % cumulative survival (DHEA 750 μg/mouse i.p. at time 0, saline 10% rabbit serum, 72 hrs, 1st exp.): 40% | % cumulative survival (DHEA 750 μg/mouse i.p. at time 0, saline 10% rabbit serum, 72 hrs, 2nd exp.): 50% | % cumulative survival (DHEA 750 μg/mouse i.p. at time 0, saline 10% rabbit serum, 96 hrs, 1st exp.): 40% | % cumulative survival (DHEA 750 μg/mouse i.p. at time 0, saline 10% rabbit serum, 96 hrs, 2nd exp.): 50% | % cumulative survival (DHEA 1000 μg/mouse i.p. 1 hour before LPS + D-Gal, saline 10% rabbit serum, 24 hrs, 2nd exp): 20% | % cumulative survival (DHEA 1000 μg/mouse i.p. 1 hour before LPS + D-Gal, saline 10% rabbit serum, 48 hrs, 2nd exp): 20% | % cumulative survival (DHEA 1000 μg/mouse i.p. 1 hour before LPS + D-Gal, saline 10% rabbit serum, 72 hrs, 2nd exp): 10% | % cumulative survival (DHEA 1000 μg/mouse i.p. 1 hour before LPS + D-Gal, saline 10% rabbit serum, 96 hrs, 2nd exp): 0% | % cumulative survival (DHEA 1000 μg/mouse i.p. at time 0, saline 10% rabbit serum, 24 hrs, 1st exp.): 80^a % | % cumulative survival (DHEA 1000 μg/mouse i.p. at time 0, saline 10% rabbit serum, 48 hrs, 1st exp.): 60% | % cumulative survival (DHEA 1000 μg/mouse i.p. at time 0, saline 10% rabbit serum, 72 hrs, 1st exp.): 60% | % cumulative survival (DHEA 1000 μg/mouse i.p. at time 0, saline 10% rabbit serum, 96 hrs, 1st exp.): 60% | % cumulative survival (DHEA 1500 μg/mouse i.p. 1 hour before LPS + D-Gal, saline 10% rabbit serum, 24 hrs, 2nd exp): 70^a %

From US7012060B1, “TNF receptor and steroid hormone in a combined therapy” (priority 1995, dated 2006)
